Test system: T1, EstATII-TM (EstATII, A126V)
T1 construct: full ORF (945 bp) in pET-SUMO, His-tagged SUMO fusion, E. coli BL21(DE3), Ni column; 55 kDa; tag cleavage not mentioned; KC958722 is the wild-type nucleotide record; tested form carries A126V
Assay: p-nitrophenol release at […] nm, nonlinear Michaelis-Menten fit
Assay type: biochemical, uncultured bacterium
Details: 30 °C, pH 7.5; substrate range 0.01-1 mM; no added metal; Table 1 prints 0.03 (±0.01) μmol; unit doubtful (substrate range suggests mM)

Work on `CCCC(=O)Oc1ccc([N+](=O)[O-])cc1` [p-nitrophenyl butyrate] yielded a Km of 0.0303 mM.

From publication PMC9144027, “Evaluation of a Thermophilic, Psychrostable, and Heavy Metal-Resistant Red Sea Brine Pool Esterase” (Marine Drugs, 2022)
